From publication PMC7551932 (Toxins, 2020)
Entries after “also recorded” stand apart in the source; their conditions may differ. Where a SMILES comes first, the peptide text is derived from it. Bridges are numbered along the chain shown (N, C = ends). Where no end group is shown, it is not given here.

Tests used:
[1] = system: TTX-R sodium channels (NaV1.5, NaV1.8, and NaV1.9); format: cell-based
hNaV1.5 = format: cell-based, human
rNaV1.2 = target: T1, rNaV1.2 (Rattus norvegicus, UniProt P04775); assay: cell-based; format: cell-based
T1 construct: expressed in transfected cells; host or cells: HEK293T

NaV1.7 over NaV1.4 = assay: Selectivity of NaV1.7 over NaV1.4; format: cell-based; conditions: Cl6a
hNaV1.9 = format: cell-based, human
rNaV1.4 = target: T2, rNaV1.4 (Rattus norvegicus, UniProt P15390); assay: cell-based; format: cell-based
T2 construct: expressed in transfected cells; host or cells: HEK293T

rNaV1.8 = format: cell-based, rat
mNaV1.6 = target: T3, mNaV1.6 (Mus musculus, UniProt Q9WTU3); assay: cell-based; format: cell-based
T3 construct: expressed in transfected cells; host or cells: HEK293T

[2] = system: TTX-S sodium channels (NaV1.2–1.4, NaV1.6, and NaV1.7); format: cell-based
rNaV1.3 = target: T4, rNaV1.3 (Rattus norvegicus, UniProt P08104); assay: cell-based; format: cell-based
T4 construct: expressed in transfected cells; host or cells: HEK293T

hNaV1.7 = target: T5, hNaV1.7 (Homo sapiens, UniProt Q15858); assay: cell-based; format: cell-based
T5 construct: expressed in transfected cells; host or cells: HEK293T

NaV1.7 [3] = target: T6, NaV1.7 (Homo sapiens, UniProt Q15858); assay: Time course of block and washout of NaV1.7 peak current; conditions: 100 nM toxin, n = 3
NaV1.7 [4] = target: T6, NaV1.7; assay: NaV1.7 gating kinetics (I–V, activation, inactivation, repriming); conditions: 10 nM toxin; for Reduction of NaV1.7 channel current: at –5 mV, n = 10
N-type calcium channels = conditions: cited from earlier work
[5] = system: TTX-sensitive sodium channel; conditions: cited from earlier work
NaV1.7 [6] = conditions: cited from earlier work

T6 sequence (Q07699 19-218): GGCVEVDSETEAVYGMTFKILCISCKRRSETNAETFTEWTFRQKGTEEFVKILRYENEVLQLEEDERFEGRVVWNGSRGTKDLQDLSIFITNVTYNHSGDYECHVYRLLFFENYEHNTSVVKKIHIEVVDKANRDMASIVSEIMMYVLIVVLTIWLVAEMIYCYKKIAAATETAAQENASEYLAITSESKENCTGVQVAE
T6 sequence (Q15858 other isoform, or with tags, fused parts or gaps): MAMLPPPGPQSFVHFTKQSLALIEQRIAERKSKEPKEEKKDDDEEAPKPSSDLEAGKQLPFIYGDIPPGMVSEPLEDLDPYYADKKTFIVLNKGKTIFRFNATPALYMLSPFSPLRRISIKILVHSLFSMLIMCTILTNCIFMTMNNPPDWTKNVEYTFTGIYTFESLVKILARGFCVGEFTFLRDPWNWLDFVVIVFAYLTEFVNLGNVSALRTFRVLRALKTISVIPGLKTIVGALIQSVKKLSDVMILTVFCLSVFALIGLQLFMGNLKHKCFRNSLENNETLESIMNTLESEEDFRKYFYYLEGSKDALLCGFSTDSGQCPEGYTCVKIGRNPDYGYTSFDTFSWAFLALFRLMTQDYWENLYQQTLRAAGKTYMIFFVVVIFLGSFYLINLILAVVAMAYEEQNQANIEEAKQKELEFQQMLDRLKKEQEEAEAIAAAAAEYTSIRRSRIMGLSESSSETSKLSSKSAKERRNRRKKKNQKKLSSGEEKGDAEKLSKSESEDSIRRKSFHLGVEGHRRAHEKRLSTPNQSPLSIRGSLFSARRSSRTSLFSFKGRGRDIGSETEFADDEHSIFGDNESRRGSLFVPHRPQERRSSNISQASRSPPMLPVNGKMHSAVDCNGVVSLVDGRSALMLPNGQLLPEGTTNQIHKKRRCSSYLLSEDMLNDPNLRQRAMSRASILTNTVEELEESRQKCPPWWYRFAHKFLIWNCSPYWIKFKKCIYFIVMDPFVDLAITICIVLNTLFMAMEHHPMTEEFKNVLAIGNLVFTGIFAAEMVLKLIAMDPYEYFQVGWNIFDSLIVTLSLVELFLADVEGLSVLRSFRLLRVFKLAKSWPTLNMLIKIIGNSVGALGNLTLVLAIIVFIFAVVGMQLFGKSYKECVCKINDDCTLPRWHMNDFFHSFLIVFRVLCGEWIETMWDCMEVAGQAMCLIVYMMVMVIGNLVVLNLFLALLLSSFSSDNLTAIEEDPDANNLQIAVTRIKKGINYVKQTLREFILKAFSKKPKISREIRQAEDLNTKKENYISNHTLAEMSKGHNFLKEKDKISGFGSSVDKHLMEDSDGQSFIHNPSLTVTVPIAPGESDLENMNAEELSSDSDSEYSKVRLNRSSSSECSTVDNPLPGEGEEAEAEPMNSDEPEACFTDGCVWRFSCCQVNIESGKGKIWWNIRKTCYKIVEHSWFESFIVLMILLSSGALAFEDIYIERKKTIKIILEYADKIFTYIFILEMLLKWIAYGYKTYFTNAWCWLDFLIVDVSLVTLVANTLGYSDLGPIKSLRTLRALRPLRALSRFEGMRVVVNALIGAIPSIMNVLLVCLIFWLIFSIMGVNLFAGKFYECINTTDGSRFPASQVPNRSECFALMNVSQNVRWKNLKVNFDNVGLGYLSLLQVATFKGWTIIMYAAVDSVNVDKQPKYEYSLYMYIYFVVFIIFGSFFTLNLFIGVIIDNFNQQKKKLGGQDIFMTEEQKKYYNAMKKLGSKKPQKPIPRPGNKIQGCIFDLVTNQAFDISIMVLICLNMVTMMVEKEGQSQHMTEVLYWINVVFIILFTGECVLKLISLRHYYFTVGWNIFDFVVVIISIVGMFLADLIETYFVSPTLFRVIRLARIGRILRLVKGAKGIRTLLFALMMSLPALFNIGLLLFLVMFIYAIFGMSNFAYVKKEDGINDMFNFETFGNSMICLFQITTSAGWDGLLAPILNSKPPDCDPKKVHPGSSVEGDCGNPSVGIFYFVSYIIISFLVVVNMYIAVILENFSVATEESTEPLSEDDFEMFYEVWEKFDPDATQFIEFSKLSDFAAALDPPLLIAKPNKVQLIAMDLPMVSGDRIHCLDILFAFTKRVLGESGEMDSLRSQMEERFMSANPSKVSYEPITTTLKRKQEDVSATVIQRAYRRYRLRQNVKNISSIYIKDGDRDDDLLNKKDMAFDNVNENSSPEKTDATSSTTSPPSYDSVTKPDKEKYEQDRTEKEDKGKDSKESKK
T6 sequence (O60939 30-215, further chain): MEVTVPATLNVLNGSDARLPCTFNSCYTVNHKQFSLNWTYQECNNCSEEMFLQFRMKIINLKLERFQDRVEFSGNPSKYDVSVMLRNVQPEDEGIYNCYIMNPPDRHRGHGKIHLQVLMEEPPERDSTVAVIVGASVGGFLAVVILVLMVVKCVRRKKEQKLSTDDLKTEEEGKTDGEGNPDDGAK
T2 sequence (P15390 whole entry): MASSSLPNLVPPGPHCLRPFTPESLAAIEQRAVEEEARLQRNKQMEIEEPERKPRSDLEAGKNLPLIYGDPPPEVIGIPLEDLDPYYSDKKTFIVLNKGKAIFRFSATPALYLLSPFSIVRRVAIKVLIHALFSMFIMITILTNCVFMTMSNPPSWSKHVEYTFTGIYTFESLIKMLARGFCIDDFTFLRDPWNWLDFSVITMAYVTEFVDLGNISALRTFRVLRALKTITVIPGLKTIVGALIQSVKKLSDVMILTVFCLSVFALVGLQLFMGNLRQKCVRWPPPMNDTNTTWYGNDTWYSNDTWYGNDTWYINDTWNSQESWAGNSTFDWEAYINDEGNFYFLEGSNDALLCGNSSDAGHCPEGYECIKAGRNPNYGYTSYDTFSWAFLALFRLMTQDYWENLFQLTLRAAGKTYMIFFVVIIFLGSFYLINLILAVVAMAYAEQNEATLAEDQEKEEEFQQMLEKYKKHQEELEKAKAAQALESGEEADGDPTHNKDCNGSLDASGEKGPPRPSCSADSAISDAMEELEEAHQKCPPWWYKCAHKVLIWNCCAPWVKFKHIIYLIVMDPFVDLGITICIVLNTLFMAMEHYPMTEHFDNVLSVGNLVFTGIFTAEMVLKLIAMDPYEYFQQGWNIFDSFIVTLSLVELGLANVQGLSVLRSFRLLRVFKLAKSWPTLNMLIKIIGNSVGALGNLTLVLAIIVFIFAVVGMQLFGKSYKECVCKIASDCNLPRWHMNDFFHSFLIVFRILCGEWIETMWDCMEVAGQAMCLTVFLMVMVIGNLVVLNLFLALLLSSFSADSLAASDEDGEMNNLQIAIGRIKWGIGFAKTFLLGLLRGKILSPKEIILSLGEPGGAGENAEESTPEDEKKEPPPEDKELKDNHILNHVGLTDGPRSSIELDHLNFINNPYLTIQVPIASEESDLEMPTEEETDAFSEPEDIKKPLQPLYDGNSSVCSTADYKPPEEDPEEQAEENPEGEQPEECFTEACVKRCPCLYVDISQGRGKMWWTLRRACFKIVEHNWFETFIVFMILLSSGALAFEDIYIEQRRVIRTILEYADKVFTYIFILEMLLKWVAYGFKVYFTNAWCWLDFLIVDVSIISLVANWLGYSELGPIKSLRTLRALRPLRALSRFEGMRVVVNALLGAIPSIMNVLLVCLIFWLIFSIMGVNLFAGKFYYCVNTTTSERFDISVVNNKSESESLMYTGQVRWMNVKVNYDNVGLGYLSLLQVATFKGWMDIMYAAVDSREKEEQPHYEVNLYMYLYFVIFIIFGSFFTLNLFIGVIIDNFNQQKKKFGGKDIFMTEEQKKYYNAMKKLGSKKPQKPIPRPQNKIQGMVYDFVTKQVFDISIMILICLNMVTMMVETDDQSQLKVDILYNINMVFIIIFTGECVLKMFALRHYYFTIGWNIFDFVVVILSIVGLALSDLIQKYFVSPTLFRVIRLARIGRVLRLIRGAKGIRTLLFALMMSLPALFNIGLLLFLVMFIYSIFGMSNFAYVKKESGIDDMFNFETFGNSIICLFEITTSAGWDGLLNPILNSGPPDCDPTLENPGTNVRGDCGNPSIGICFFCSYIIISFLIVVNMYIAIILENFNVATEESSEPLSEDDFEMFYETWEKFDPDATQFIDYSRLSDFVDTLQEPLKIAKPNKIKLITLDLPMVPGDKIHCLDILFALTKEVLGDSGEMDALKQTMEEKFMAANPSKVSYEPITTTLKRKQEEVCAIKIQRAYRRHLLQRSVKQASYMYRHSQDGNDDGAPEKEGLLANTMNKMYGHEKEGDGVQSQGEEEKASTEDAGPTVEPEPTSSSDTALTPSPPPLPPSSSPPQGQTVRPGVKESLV
T5 sequence (Q15858 other isoform, or with tags, fused parts or gaps): as the sequence (Q15858 other isoform, or with tags, fused parts or gaps) above
T5 sequence (O60939 30-215, further chain): as the sequence (O60939 30-215, further chain) above
T5 sequence (Q07699 19-218, further chain): as the sequence (Q07699 19-218) above

CC[C@H](C)[C@H](NC(=O)[C@H](CCCCN)NC(=O)[C@H](Cc1c[nH]c2ccccc12)NC(=O)[C@H](CCCCN)NC(=O)[C@@H]1CSSC[C@@H]2NC(=O)[C@H](CCC(=O)O)NC(=O)[C@H](CC(N)=O)NC(=O)[C@H](CCCCN)NC(=O)CNC(=O)[C@@H]3CCCN3C(=O)[C@H]([C@@H](C)O)NC(=O)[C@@H]3CSSC[C@H](NC(=O)[C@H](C(C)C)NC(=O)[C@H](CCCNC(=N)N)NC(=O)[C@H](CC(N)=O)NC(=O)[C@@H]4CCCN4C(=O)[C@H](CSSC[C@H](NC(=O)[C@H](C)N)C(=O)N[C@@H](CCCCN)C(=O)NCC(=O)N[C@@H](C(C)C)C(=O)N[C@@H](Cc4ccccc4)C(=O)N[C@@H](CC(=O)O)C(=O)N4CCC[C@H]4C(=O)N3)NC2=O)C(=O)N[C@@H](CO)C(=O)N[C@@H](CC(=O)O)C(=O)N[C@@H](CCCCN)C(=O)N[C@@H](Cc2c[nH]cn2)C(=O)N[C@@H](CCCCN)C(=O)N[C@@H](Cc2c[nH]c3ccccc23)C(=O)N1)C(=O)O [Cl6a] (H-ACKGVFDPCTPGKNECCPNRVCSDKHKWCKWKI-OH; disulfide 2-17, 9-22, 16-29; N-terminus and C-terminus assumed)
Inhibition of TTX-R sodium channels [1]: not TTX-R (NaV1.5, NaV1.8, and NaV1.9)
Inhibition of hNaV1.5 current (hNaV1.5): No inhibitory effects
IC50 (rNaV1.2): 56.1 ± 13.6 nM
Inhibition of rNaV1.2 current (rNaV1.2): decreased
Fold selectivity over NaV1.4 (NaV1.7 over NaV1.4): ~ 40 fold
Inhibition of hNaV1.9 current (hNaV1.9): No inhibitory effects
IC50 (rNaV1.4): 480 ± 100 nM
Inhibition of rNaV1.4 current (rNaV1.4): decreased
Inhibition of rNaV1.8 current (rNaV1.8): No inhibitory effects
IC50 (mNaV1.6): 9.2 ± 1.3 nM
Inhibition of mNaV1.6 current (mNaV1.6): completely inhibited
Inhibition of TTX-S sodium channels [2]: can inhibit TTX-S, but not TTX-R, sodium channels; also recorded: inhibitors of tetrodotoxin-sensitive (TTX-S), but not TTX-resistant, sodium channels; also recorded: inhibited TTX-S (NaV1.2–1.4, NaV1.6, and NaV1.7)
IC50 (rNaV1.3): 75.9 ± 6.3 nM
Inhibition of rNaV1.3 current (rNaV1.3): decreased
IC50 (hNaV1.7): 11 ± 2.5 nM
Inhibition of hNaV1.7 current (hNaV1.7): completely inhibited
Reversibility of NaV1.7 inhibition on washing (NaV1.7 [3]; 5 min wash with bath solution): irreversibly inhibit NaV1.7 channel currents; also recorded: irreversible; also recorded: sustained inhibition of NaV1.7 channel currents
τon (onset of NaV1.7 peak current inhibition) (NaV1.7 [3]; mean ± SEM): 36.2 ± 5.3 s
Voltage dependence of activation, k (toxin) (NaV1.7 [4]; NaV1.7, mean ± SEM, n = 6–10, control 6.2 ± 0.3 (Cl6a), 6.7 ± 0.4 (Cl6b)): 7.3 ± 0.4 mV
Voltage dependence of inactivation, k (toxin) (NaV1.7 [4]; NaV1.7, mean ± SEM, n = 6–10, control −5.4 ± 0.3 (Cl6a), −5.2 ± 0.3 (Cl6b)): −5.7 ± 0.4 mV
Voltage dependence of activation, V1/2 (toxin) (NaV1.7 [4]; NaV1.7, mean ± SEM, n = 6–10, control −19.5 ± 1.5 (Cl6a), −16.3 ± 0.4 (Cl6b)): −22.3 ± 1.7 mV
Voltage dependence of inactivation, V1/2 (toxin) (NaV1.7 [4]; NaV1.7, mean ± SEM, n = 6–10, control −78.3 ± 1.8 (Cl6a), −70.1 ± 1.5 (Cl6b)): −81.6 ± 2.4 mV
Repriming (toxin) (NaV1.7 [4]; NaV1.7, recovery at −100 mV, test pulse −10 mV, mean ± SEM, n = 9 (Cl6a), n = 7 (Cl6b), control 14.9 ± 2.4 (Cl6a), 6.3 ± 0.9 (Cl6b)): 17.6 ± 2.5 ms
Reduction of NaV1.7 channel current (NaV1.7 [4]): 52.3%
Effect on NaV1.7 activation and inactivation (gating) (NaV1.7 [4]; n = 6–10): does not alter channel activation, inactivation, or repriming kinetics; also recorded: cannot significantly change the activation kinetics

CC[C@H](C)[C@H](NC(=O)[C@H](CCCCN)NC(=O)[C@H](Cc1ccc(O)cc1)NC(=O)[C@H](CCCCN)NC(=O)[C@@H]1CSSC[C@@H]2NC(=O)[C@H](CCC(=O)O)NC(=O)[C@H](CC(=O)O)NC(=O)[C@H](CCCCN)NC(=O)CNC(=O)[C@@H]3CCCN3C(=O)[C@H]([C@@H](C)O)NC(=O)[C@@H]3CSSC[C@H](NC(=O)[C@H](C(C)C)NC(=O)[C@H](Cc4c[nH]cn4)NC(=O)[C@H](CC(N)=O)NC(=O)[C@@H]4CCCN4C(=O)[C@H](CSSC[C@H](NC(=O)[C@H](C)N)C(=O)N[C@@H](CCCCN)C(=O)NCC(=O)N[C@@H]([C@@H](C)CC)C(=O)N[C@@H](Cc4ccccc4)C(=O)N[C@@H](C(C)C)C(=O)N[C@@H]([C@@H](C)O)C(=O)N3)NC2=O)C(=O)N[C@@H](CO)C(=O)N[C@@H](CO)C(=O)N[C@@H](CCCCN)C(=O)N[C@@H](Cc2c[nH]cn2)C(=O)N[C@@H](CCCCN)C(=O)N[C@@H](Cc2c[nH]c3ccccc23)C(=O)N1)C(=O)O [Cl6b] (H-ACKGIFVTCTPGKDECCPNHVCSSKHKWCKYKI-OH; disulfide 2-17, 9-22, 16-29)
Reduction of NaV1.7 channel current (NaV1.7 [4]): 49.7%

HWTX-I (ACKGVFDACTPGKNECCPNRVCSDKHKWCKWKL; ends and bridges not checked; cysteine pairing not given here; UniProt P56676 49-81, looked up)
N-type calcium channel inhibition (N-type calcium channels): inhibitor of N-type calcium channels
TTX-sensitive sodium channel inhibition [5]: inhibitor of N-type calcium channels and a TTX-sensitive sodium channel

HWTX-IV
Binding site on NaV1.7 (NaV1.7 [6]): site 4 toxins that interact with the DII S3–S4 linker of NaV1.7 channels
